From PubChem BioAssay AID179 (DTP/NCI, 2004)
Activity calls are given as the source filed them.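 How the source made its calls: active means compounds giving half or more protection of infected cells from virus-caused growth loss, again on retest; inactive means the rest.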 Where a SMILES comes first, the peptide text is derived from it. The star is where a group is joined. Boc = CC(C)(C)OC(=O)*

Test system: CEM cells HIV-1 protection, formazan growth assay
Assay: NCI AIDS Antiviral Assay
Conditions: for IC50: measured here: growth of uninfected CEM cells
Method in brief: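 Five concentrations of each compound were applied to infected and uninfected human CEM cells. Protection from HIV-1 was judged from growth measured with a soluble formazan assay.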

SMILES | EC50 [µM] | IC50 [µM] | outcome
CC(=O)NC(CS)C(=O)NC(CO)C(=O)NC(CO)C(=O)NC(Cc1c[nH]c2ccccc12)C(=O)N1CCCC1C(=O)NC(CO)C(=O)NC(Cc1c[nH]c2ccccc12)C(=O)NC(Cc1c[nH]cn1)C(=O)NC(CO)C(=O)NC(Cc1c[nH]c2ccccc12)C(=O)NCC(=O)NCC(=O)NC(CC(=O)O)C(=O)NC(CCC(N)=O)C(=O)NC(CCCCN)C(=O)NC(Cc1ccccc1)C(=O)NC(CCCNC(=N)N)C(=O)NC(CCCCN)C(N)=O (stereo not given) (Ac-CSSWPSWHSWGGDQKFRK-NH2; configuration not given here) | > 20 | > 20 | 
CC(C(=O)O)[S+]1CCOCC1 (stereo not given) | 0.0631 | > 200 | 
CN(C)CCSc1cccc(-c2cc(-c3cccc(SCCN(C)C)c3)ncn2)c1 | > 21.9 | 8.71 | 
O=C1NC2(CCN(CCCC3(c4ccc(F)cc4)OCCO3)CC2)Oc2ccccc21 | > 100 | > 100 | 
CN(C)CCN1C(=O)c2ccccc2N(C)c2ccccc21 | > 200 | > 200 | 
COC(=O)c1c2c(cc3nc4ccccc4nc13)OCO2 | > 200 | > 200 | 
O=C(NC1C=CCC2C(=O)N(c3ccccc3)C(=O)C12)OCc1ccccc1 (stereo not given) |  |  | inactive
CC(C)(Oc1ccc(/C=C/C(=O)c2ccc(Cl)cc2)cc1)C(=O)Nc1c(Cl)cccc1Cl | > 14.8 | > 14.8 | 
Cn1c(=O)nc2n(-c3ccc(Br)cc3)c3ccccc3nc-2c1=O |  |  | inactive
O=c1ccn2n1CCCCC2 | > 200 | > 200 | 
O=c1[nH]c2c(c3ccccc13)CCc1ccccc1-2 |  |  | inactive
Cc1ccc(S(=O)C[C@@]2(C(F)F)NC(=O)NC2=O)cc1 (stereo not given in full) | > 200 | 178 | 
COC(c1cccc(C(O)(C(F)(F)F)C(F)(F)F)c1)(C(F)(F)F)C(F)(F)F |  |  | inactive
O=C1CN(Cc2cccc(Cl)c2)CC(=O)N2Cc3ccccc3CN12 |  |  | inactive
CCC1OC(=O)CC(O)C(C)C(OC2OC(C)CC(N(C)C)C2O)C(CC=O)CC(C)C(=O)/C=C/C2(C)OC2C1C (stereo not given) | > 200 | 33.9 | 
C#CCN(Cc1ccc2nc(-c3ccccc3)c(Cl)nc2c1)c1ccc(F)cc1 | > 200 | 27.5 | 
Cc1c(Cl)cccc1N=NC(=O)NNc1cccc(Cl)c1C | > 200 | 33.1 | 
CC1[C@@H](OCc2ccccc2)COC(=O)N1Cc1ccccc1 (stereo not given in full) | > 200 | 89.1 | 
C=C1CN(S(=O)(=O)c2ccc([N+](=O)[O-])cc2)CC(=C)CN(S(=O)(=O)c2ccc([N+](=O)[O-])cc2)CC(=C)CN(S(=O)(=O)c2ccc([N+](=O)[O-])cc2)C1 | > 100 | > 100 | 
CC(C)C1=Cc2ccc3c(c2C(=O)C1=O)CCCC3(C)C | > 18.6 | 2.95 | 
Fc1ccccc1C1CC(C(c2ccccc2)c2ccccc2)=Nc2ccccc2S1 (stereo not given) | > 6.46 | > 6.46 | 
Oc1c(Br)cc(Br)cc1/C=C/NC(=S)NC1CC2CC1C1C=CCC21 (stereo not given) | > 200 | 3.02 | 
CC1CCC(C(C)C)C(OC2(c3ccccc3)OC(=O)c3ccccc32)C1 (stereo not given) |  |  | inactive
O=c1[nH]c2cccccc-2c1-c1nc2ccccc2[nH]1 | > 138 | > 138 | 
Cc1nc2c(C)ccc([N+](=O)[O-])c2c(NCCCN(C)C)c1C | > 200 | 69.2 | 
O=C1CC2C(=O)NC(=O)C2C(=O)N1 (stereo not given) | > 1380 | > 1380 | 
NC(=S)N/N=C1\CCc2ccccc2C1 | > 575 | 15.8 | 

SMILES | EC50 [µM] | IC50 [µM] | outcome
Nc1ccc(N=Nc2ccc(-c3ccc(N=Nc4c(S(=O)(=O)O)cc5cc(S(=O)(=O)O)c(N=Nc6ccc([N+](=O)[O-])cc6)c(N)c5c4O)cc3)cc2)c2cc(S(=O)(=O)O)ccc12 | > 19.5 | > 19.5 | 
C[C@]12CC[C@H](O)C[C@@H]1CC[C@@H]1[C@@H]2CC[C@]2(C)c3nc4ccccc4cc3C[C@@H]12 | > 200 | 8.13 | 
NNC(=O)N/N=C1/C(=O)N(c2ccc(Cl)c(Cl)c2)C(=O)C(=O)C1c1nc2ccccc2o1 (stereo not given) |  |  | inactive
CN(C)c1ccc(/C=C(/C#N)c2ccc(Cl)cc2)cc1 | > 100 | 1.23 | 
Cc1cc(=O)oc2c3c(cc(OC(C)C)c12)O[C@H](C)[C@@H](C)C3=O | > 200 | 40.7 | 
Cc1ccc(/C=C2\NC(=S)N(CN3CCCCC3)C2=O)cc1 | > 200 | 29.5 | 
O=S(=O)(O)c1cccc2c(N=Nc3ccc(N=Nc4ccc(Nc5ccccc5)c5c(S(=O)(=O)O)cccc45)c4ccccc34)cccc12 | > 50.1 | 34.7 | 
Cn1c(COC(=O)NC2CCCCC2)c(COC(=O)NC2CCCCC2)c2ccc3cc(Cl)c(Cl)cc3c21 | > 174 | 6.46 | 
O=c1[nH]c(-n2[nH]c3c(c2=O)CCCC3)nc(O)c1-c1ccccc1 | > 200 | > 200 | 
COc1ccc2[nH]c3c(c2c1)[C@H]1CCC(C(C)(C)C)C[C@H]1[C@H]1C(=O)N(c2ccccc2)C(=O)[C@@H]31 (stereo not given in full) | > 7.94 | > 7.94 | 
COc1cc(COC(=O)N2CCC2C(=O)O)c([N+](=O)[O-])cc1OC (stereo not given) | > 741 | > 741 | 
O=[N+]([O-])c1ccc(CSc2nn(Cc3ccc([N+](=O)[O-])cc3)cc3ncnc2-3)cc1 | > 200 | 19.5 | 
CC(C)=CCCc1c(C)ccc2c1C(=O)C(=O)C(C(C)C)=C2 | > 60.3 | 4.47 | 
c1ccc2c(c1)CCN2CCc1c[nH]c2ccccc12 | > 200 | 178 | 
CC1=CN2C(c3ccccc3)=NON(c3ccc(C)cn3)C2C=C1 (stereo not given) | > 21.4 | > 21.4 | 
O=c1[nH]nc(-c2ccc3ccccc3c2)[nH]1 | 135 | > 200 | 
CN(C)C(=S)/N=c1\ssc(=S)n1C1CCCCC1 |  |  | inactive
CCN(CC)C(=O)CC12CCCCC1=Nc1ccccc12 (stereo not given) | > 871 | 550 | 
CC(NC(=O)C(NC(=O)OC(C)(C)C)C(C)C)C(=O)NCC(=O)O (stereo not drawn) (Boc-Val-Ala-Gly-OH; configuration not given here) | > 200 | > 200 | 
C=C1C2CCC3(CCC4C5(C)CCCC4(C=[N+](CCO)C5)C3C2)C1O (stereo not given) |  |  | inactive
CC(C)(C)C1COP(=O)(OCc2ccccc2)OC1 (stereo not given) | > 631 | > 631 | 
CCOC(=O)N1C/C(=C\c2ccccc2)C(=O)/C(=C/c2ccccc2)C1 | > 100 | 1.82 | 
CC(C)(C)OC(=O)NCC(O)CNC(=O)OC(C)(C)C | > 871 | > 871 | 
Cc1c(/C=N/NC(=S)Nc2cccc(Cl)c2)c(=O)n(-c2ccccc2)n1C | > 200 | > 200 | 
O=C(N/N=C/c1ccccc1S(=O)(=O)O)C(=O)N/N=C/c1ccccc1S(=O)(=O)O | > 200 | > 200 | 
CC(=S)N/C=C\c1nc2ccccc2[nH]c1=O |  |  | inactive
ClCc1ccc2ccc3ccc(CCl)nc3c2n1 | > 200 | 1.51 | 

SMILES | EC50 [µM] | IC50 [µM] | outcome
Cc1ccc(C)c2sc3cc(=O)ccc-3nc12 | > 107 | > 107 | 
CC(C)CCC[C@@H](C)[C@H]1CC[C@H]2[C@@H]3CC[C@H]4CC5(C[C@]4(C)[C@H]3CC[C@]12C)Nc1ccccc1S5 (stereo not given in full) | > 20 | > 20 | 
CCCn1c(SCCSc2c3ccccc3c(-c3nc(F)nc(F)n3)n2CCC)c2ccccc2c1-c1nc(F)nc(F)n1 | > 4.07 | 3.98 | 
O=S1C=C(C2=COCCC2)OC1 (stereo not given) | > 195 | > 195 | 
COc1ccc2cc1Oc1ccc(cc1)C[C@H]1NCCc3cc(OC)c(cc31)Oc1c(O)c(OC)cc3c1CCN(C)C3C2 (stereo not given in full) |  |  | inactive
CCCCCCCCCCCCCCCCCC(=O)OCC(COC1OC(COS(=O)(=O)O)C(O)C(O)C1O)OC(=O)CCCCCCCCCCCCCCCCC (stereo not given) |  |  | inactive
Cc1ccc(S(=O)(=O)N2C3C=CC(C3)[C@@H]2C(Cl)(Cl)Cl)cc1 (stereo not given in full) | > 200 | 30.9 | 
Nc1ccccc1[S][Sn]([c]1ccccc1)([c]1ccccc1)[c]1ccccc1 | > 2 | 0.324 | 
CCOC(=O)C(NC(=O)CC)(Nc1cc(C)on1)C(F)(F)F (stereo not given) | > 200 | > 200 | 
CCN(CC)c1ccc2cc(-c3nc4ccccc4n3C)c(=O)oc2c1 | > 7.59 | 0.437 | 
CC1=C/N\C(C#N)=C(C#N)/N=C/C(C)=C\N\C(C#N)=C(C#N)/N=C\1 | > 200 | > 200 | 
Cn1ccnc1Oc1ccc(Cl)cc1 | > 200 | 9.77 | 
O=C(CCc1ccccc1)n1cccc1CO | > 200 | 56.2 | 
CC(C)[C@](O)(C(=O)OCC1CCN2CC[C@@H](O)C12)[C@H](C)O (stereo not given in full) | > 200 | > 200 | 
O=C1NC(N2CCOCC2)=N/C1=C\c1ccc(O)cc1 | > 200 | 105 | 
CCOC(=O)C1C(c2ccc(O)c(OC)c2)c2c([nH][nH]c2=O)CC1(C)O (stereo not given) | > 200 | > 200 | 
Cc1c(CC/C(=N\Nc2ccc([N+](=O)[O-])cc2[N+](=O)[O-])c2ccccc2)c2ccccc2n1C |  |  | inactive
CCOC(=O)C(C(=S)Nc1ccccc1)c1nn2c(=O)cc(C)nc2s1 (stereo not given) | > 200 | 34.7 | 
COc1ccc(NC(=S)Nc2cc(C)cc(C)n2)cc1 | > 200 | > 200 | 
Cn1c2c(c3ccccc31)CCN1C(=O)CN(C(=O)C3CCCCC3)CC21 (stereo not given) | > 200 | 66.1 | 
CC1C=C(OC(=O)c2ccccc2)C(=O)C(n2cc(F)c(=O)[nH]c2=O)O1 (stereo not given) |  |  | inactive
CCOC(=O)C(Cc1ccc(N=NN(C)C)cc1)NC(=O)CC1c2ccccc2-c2ccccc21 (stereo not given) | > 11 | 6.46 | 
CCOC(=O)C1N(S(=O)(=O)c2ccc(C)cc2)CCC12c1ccccc1N(C(C)=O)C2C(/C=C/C(=O)OC)=C/C(=O)OC (stereo not given) |  |  | inactive
CCC(=O)N/N=C(\C=C\c1cccc(O)c1)c1sc(Nc2ccc(C)cc2[N+](=O)[O-])nc1C | > 77.6 | > 77.6 | 
COC(=O)CCC=C(c1cc(Cl)c(OC)c(C(=O)OC)c1)c1cc(Cl)c(OC)c(C(=O)OC)c1 | > 200 | 44.7 | 
CC(C)CCCC(C)C1CCC2[C@@H]3CCC4C[C@@H](CCC=C(c5cc(Br)c(O)c(C(=O)O)c5)c5cc(Br)c(O)c(C(=O)O)c5)CC[C@]4(C)C3CC[C@]12C (stereo not given in full) | 20.9 | 282 | 
